From US11716994B2, “Combinations of Yersinia entomophaga and pesticides or other substances” (priority 2017, dated 2023)
Several values for one entry are separate records, joined by “and”; a condition that tells them apart may be missing. Equal entries are not always repeated. Where two headings read alike, the source gives them in different places.

Legend:
[1] = tested on: black cutworm; assay: Leaf disk mortality assay, Y. entomophaga cells with chemical insecticides; conditions: for LT50 Chem.: black cutworm
[2] = tested on: cabbage looper
[3] = tested on: diamondback moth; assay: whole plant or invertebrate; conditions: for LT50 (95% confidence intervals) / LT50 (95% confidence intervals) in days: 2nd instar diamondback moth; for LT50 Chem. / % Mort. Chem.: Diamondback moth; for LT50 (95% confidence intervals) in days: Probit analysis
Description: (§1) These were set to dry for 1 hr.
as §1
These were set to dry for 1 hr. Cabbage disks were then dipped in either 1% Luria broth (LB) media solution (controls and thiacloprid alone treatments) or in 1% cell free filtrate from a culture Y. entomophaga isolate O24G3R (Y. entomophaga alone or in combination with thiacloprid treatments).

[4] = tested on: cabbage looper; conditions: Cabbage Looper, clothianidin 60 mg/L
[5] = tested on: fall armyworm; assay: Leaf disk mortality assay, Y. entomophaga cells with chemical insecticides; conditions: for LT50 (95% confidence intervals) in days / LT50 (95% confidence intervals): 3rd instar; for mortality at 60 µg/mL / mortality at 300 µg/mL / mortality at 19 µg/mL: Spodoptera frugiperda, foliar; for % Mort. Chem. / LT50 Chem.: fall armyworm

SMILES: CC1(C)C(C=C(Cl)Cl)C1C(=O)OC(C#N)c1ccc(F)c(Oc2ccccc2)c1 (centres unmarked) [Cyfluthrin]
- LT50 (95% confidence intervals) ([1]; 3rd instar, cyfluthrin […], isolate O43NEW 1×10^4 cfu/mL): 8.82 days
- LT50 Chem. ([1]; Cyfluthrin alone […]): 8.82 days
- LT50 Chem. ([2]; cabbage looper, Cyfluthrin alone […]): 7.33 days
- % Mortality (4DAT) ([2]; in vivo): 30%
- % Mortality (5DAT) ([2]; in vivo): 50%
- LT75 (95% confidence intervals) ([2]; in vivo): 7.326 days

SMILES: Cc1cc(C(F)(C(F)(F)F)C(F)(F)F)ccc1NC(=O)c1cccc(I)c1C(=O)NC(C)(C)CS(C)(=O)=O [Flubendiami-de]
- LT50 Chem. ([1]; Flubendiami-de alone 0.2 mg/L): 4.83 days
- LT50 Chem. ([1]; Flubendiami-de alone 0.59 mg/L): 4.99 days

SMILES: CN/C(=N\[N+](=O)[O-])NCc1cnc(Cl)s1 [Clothianidin]
- LT50 (95% confidence intervals) ([3]; clothianidin 60 mg/L, O43NEW filtrate 1%, alone or combined): 6.120 days
- LT50 Chem. ([3]; clothianidin 60 mg/L): 6.12 days
- % Mort. Chem. ([3]; clothianidin 60 mg/L, 4 DAT): 47%
- mortality at 60 µg/mL ([3]; Plutella xylostella, foliar, 96 h, read-out: % Mortality (4DAT), 2nd instar diamondback moth, clothianidin 60 mg/L, O43NEW filtrate 1%, alone or combined, 4 DAT, Abbott's corrected): 47%
- mortality at 60 µg/mL ([3]; Plutella xylostella, foliar, 120 h, read-out: % Mortality (5DAT), 2nd instar diamondback moth, clothianidin 60 mg/L, O43NEW filtrate 1%, alone or combined, 5 DAT, Abbott's corrected): 53%
- LT50 Chem. [4]: 9.07 days
- % Mort. Chem. ([4]; 5 DAT): 30%
- LT50 (95% confidence intervals) in days ([5]; clothianidin 60 mg/L, isolate O24G3R 1×10^5 cfu/mL): 9.38 (8.57-10.27) days
- LT50 (95% confidence intervals) in days ([5]; clothianidin 60 mg/L, isolate O43NEW 1×10^5 cfu/mL): 10.94 (9.97-12.03) days
- LT50 (95% confidence intervals) in days ([5]; clothianidin 60 mg/L, isolate O333A4 1×10^5 cfu/mL): 22.94 (19.21-27.62) days
- mortality at 60 µg/mL ([5]; 96 h, read-out: % Mortality (4DAT), 3rd instar, clothianidin 60 mg/L, isolate O333A4 1×10^5 cfu/mL): 0%
- mortality at 60 µg/mL ([5]; 120 h, read-out: % Mortality (5DAT), 3rd instar, clothianidin 60 mg/L, isolate O24G3R 1×10^5 cfu/mL): 5%
- mortality at 60 µg/mL ([5]; 120 h, read-out: % Mortality (5DAT), 3rd instar, clothianidin 60 mg/L, isolate O333A4 1×10^5 cfu/mL): 0%
- mortality at 60 µg/mL ([5]; 144 h, read-out: % Mortality (6DAT), 3rd instar, clothianidin 60 mg/L, isolate O24G3R 1×10^5 cfu/mL): 11%
- mortality at 60 µg/mL ([5]; 168 h, read-out: % Mortality (7DAT), 3rd instar, clothianidin 60 mg/L, isolate O43NEW 1×10^5 cfu/mL): 0%
- mortality at 60 µg/mL ([5]; 168 h, read-out: % Mortality (7DAT), 3rd instar, clothianidin 60 mg/L, isolate O333A4 1×10^5 cfu/mL): 5%
- mortality at 60 µg/mL ([5]; 240 h, read-out: % Mortality (10DAT), 3rd instar, clothianidin 60 mg/L, isolate O43NEW 1×10^5 cfu/mL): 0%
- mortality at 60 µg/mL ([5]; 312 h, read-out: % Mortality (13DAT), 3rd instar, clothianidin 60 mg/L, isolate O43NEW 1×10^5 cfu/mL): 11%
- % Mort. Chem. ([5]; Clothianidin 60 mg/L, 5 DAT): 5%
- % Mort. Chem. ([5]; Clothianidin 60 mg/L, 7 DAT): 5%
- % Mort. Chem. ([5]; Clothianidin 60 mg/L, 10 DAT): 0%

SMILES: CCOC(=O)OC1=C(c2cc(C)ccc2C)C(=O)N[C@]12CC[C@@H](OC)CC2 [Spirotetramat]
- LT50 (95% confidence intervals) in days ([3]; spirotetramat 30 mg/L, 1% O24G3R filtrate): 23.41 (19.1-28.86) days
- LT50 (95% confidence intervals) in days ([3]; spirotetramat 30 mg/L, 1% O43NEW filtrate): 21.02 (16.86-26.76) days
- % Mort. Chem. ([3]; spirotetramat 30 mg/L, 6 DAT, O43NEW experiment): 11%
- % Mort. Chem. ([3]; spirotetramat 30 mg/L, 10 DAT, O24G3R experiment): 0%
- LT50 Chem. ([3]; spirotetramat 30 mg/L, O24G3R experiment): 23.41 days
- LT50 Chem. ([3]; spirotetramat 30 mg/L, O43NEW experiment): 21.02 days
- mortality at 30 µg/mL ([3]; Plutella xylostella, foliar, 96 h, read-out: % Mortality (4DAT), diamondback moth, spirotetramat 30 mg/L, 1% O43NEW filtrate, 4 DAT, Abbott's corrected): 5%
- mortality at 30 µg/mL ([3]; Plutella xylostella, foliar, 120 h, read-out: % Mortality (5DAT), diamondback moth, spirotetramat 30 mg/L, 1% O43NEW filtrate, 5 DAT, Abbott's corrected): 5%
- mortality at 30 µg/mL ([3]; Plutella xylostella, foliar, 144 h, read-out: % Mortality (6DAT), diamondback moth, spirotetramat 30 mg/L, 1% O24G3R filtrate, 6 DAT, Abbott's corrected): 0%
- mortality at 30 µg/mL ([3]; Plutella xylostella, foliar, 144 h, read-out: % Mortality (6DAT), diamondback moth, spirotetramat 30 mg/L, 1% O43NEW filtrate, 6 DAT, Abbott's corrected): 11%
- mortality at 30 µg/mL ([3]; Plutella xylostella, foliar, 168 h, read-out: % Mortality (7DAT), diamondback moth, spirotetramat 30 mg/L, 1% O43NEW filtrate, 7 DAT, Abbott's corrected): 16%
- mortality at 30 µg/mL ([3]; Plutella xylostella, foliar, 240 h, read-out: % Mortality (10DAT), diamondback moth, spirotetramat 30 mg/L, 1% O24G3R filtrate, 10 DAT, Abbott's corrected): 0%
- mortality at 30 µg/mL ([3]; Plutella xylostella, foliar, 264 h, read-out: % Mortality (11DAT), diamondback moth, spirotetramat 30 mg/L, 1% O24G3R filtrate, 11 DAT, Abbott's corrected): 0%
- mortality at 30 µg/mL ([3]; Plutella xylostella, foliar, 336 h, read-out: % Mortality (14DAT), diamondback moth, spirotetramat 30 mg/L, 1% O24G3R filtrate, 14 DAT, Abbott's corrected): 0%
- LT50 (95% confidence intervals) in days ([5]; spirotetramat 300 mg/L, isolate O43NEW 1×10^5 cfu/mL): 10.29 (9.39-11.29) days
- mortality at 300 µg/mL ([5]; 144 h, read-out: % Mortality (6DAT), 3rd instar, spirotetramat 300 mg/L, isolate O43NEW 1×10^5 cfu/mL): 6%
- mortality at 300 µg/mL ([5]; 168 h, read-out: % Mortality (7DAT), 3rd instar, spirotetramat 300 mg/L, isolate O43NEW 1×10^5 cfu/mL): 13%
- % Mort. Chem. ([5]; Spirotetramat 300 mg/L, 6 DAT): 6%
- LT50 Chem. ([5]; Spirotetramat alone 300 mg/L): 10.29 days

SMILES: CC1(C)[C@H](C(=O)O[C@H](C#N)c2cccc(Oc3ccccc3)c2)[C@@H]1/C=C(\Cl)C(F)(F)F (racemic) [λ-cyhalothrin]
- LT50 (95% confidence intervals) ([5]; λ-cyhalothrin […], isolate O43NEW 1×10^5 cfu/mL): 5.20 days
- LT50 Chem. ([5]; λ-cyhalothrin alone […]): 5.20 days

SMILES: CCOP(=S)(OCC)Oc1nc(Cl)c(Cl)cc1Cl [Chlorpyrifos]
- LT50 (95% confidence intervals) ([3]; chlorpyrifos 3.8 mg/L, O43NEW filtrate 1%, alone or combined): 3.72 days
- LT50 Chem. ([3]; chlorpyrifos 3.8 mg/L): 3.72 days
- % Mort. Chem. ([3]; chlorpyrifos 3.8 mg/L, 4 DAT): 74%
- mortality at 3.8 µg/mL ([3]; Plutella xylostella, foliar, 96 h, read-out: % Mortality (4DAT), 2nd instar diamondback moth, chlorpyrifos 3.8 mg/L, O43NEW filtrate 1%, alone or combined, 4 DAT, Abbott's corrected): 74%
- LT50 (95% confidence intervals) in days ([5]; chlorpyrifos 19 mg/L, isolate O24G3R 1×10^5 cfu/mL): 8.02 (7.22-8.91) days
- LT50 (95% confidence intervals) in days ([5]; chlorpyrifos 19 mg/L, isolate O24KEK 1×10^5 cfu/mL): 8.02 (7.22-8.91) days
- LT50 (95% confidence intervals) in days ([5]; chlorpyrifos 19 mg/L, isolate O43NEW 1×10^5 cfu/mL): 6.83 (6.09-7.66) days
- LT50 (95% confidence intervals) ([5]; chlorpyrifos 19 mg/L, isolate O333A4 1×10^5 cfu/mL): 8.02 days
- mortality at 19 µg/mL ([5]; 72 h, read-out: % Mortality (3DAT), 3rd instar, chlorpyrifos 19 mg/L, isolate O43NEW 1×10^5 cfu/mL): 40%
- mortality at 19 µg/mL ([5]; 96 h, read-out: % Mortality (4DAT), 3rd instar, chlorpyrifos 19 mg/L, isolate O43NEW 1×10^5 cfu/mL): 45%
- mortality at 19 µg/mL ([5]; 96 h, read-out: % Mortality (4DAT), 3rd instar, chlorpyrifos 19 mg/L, isolate O333A4 1×10^5 cfu/mL): 35%
- mortality at 19 µg/mL ([5]; 120 h, read-out: % Mortality (5DAT), 3rd instar, chlorpyrifos 19 mg/L, isolate O24G3R 1×10^5 cfu/mL): 35%
- mortality at 19 µg/mL ([5]; 120 h, read-out: % Mortality (5DAT), 3rd instar, chlorpyrifos 19 mg/L, isolate O333A4 1×10^5 cfu/mL): 35%
- mortality at 19 µg/mL ([5]; 144 h, read-out: % Mortality (6DAT), 3rd instar, chlorpyrifos 19 mg/L, isolate O24G3R 1×10^5 cfu/mL): 35%
- mortality at 19 µg/mL ([5]; 144 h, read-out: % Mortality (6DAT), 3rd instar, chlorpyrifos 19 mg/L, isolate O24KEK 1×10^5 cfu/mL): 35%
- mortality at 19 µg/mL ([5]; 144 h, read-out: % Mortality (6DAT), 3rd instar, chlorpyrifos 19 mg/L, isolate O333A4 1×10^5 cfu/mL): 35%
- mortality at 19 µg/mL ([5]; 168 h, read-out: % Mortality (7DAT), 3rd instar, chlorpyrifos 19 mg/L, isolate O24G3R 1×10^5 cfu/mL): 40%
- mortality at 19 µg/mL ([5]; 168 h, read-out: % Mortality (7DAT), 3rd instar, chlorpyrifos 19 mg/L, isolate O24KEK 1×10^5 cfu/mL): 40%
- mortality at 19 µg/mL ([5]; 168 h, read-out: % Mortality (7DAT), 3rd instar, chlorpyrifos 19 mg/L, isolate O333A4 1×10^5 cfu/mL): 40%
- % Mort. Chem. ([5]; Chlorpyrifos 19 mg/L, 3 DAT): 40%
- % Mort. Chem. ([5]; Chlorpyrifos 19 mg/L, 5 DAT): 35%
- % Mort. Chem. ([5]; Chlorpyrifos 19 mg/L, 6 DAT (row with O24KEK)): 35%
- % Mort. Chem. ([5]; Chlorpyrifos 19 mg/L, 6 DAT (row with O333A4)): 35%
- LT50 Chem. ([5]; Chlorpyrifos alone 19 mg/L): 6.83 days and 8.02 days
